These results are taken from patent publication USRE49080E1, “Glycoside derivatives and uses thereof” (Novartis AG, priority 2009, dated 2022).

Assay [1] concerns the target human sodium glucose co-transporter 2 (Homo sapiens (Human), UniProt P31639). The experiment in a line: SGLT-2 assay: 14C-AMG uptake in CHO-hSGLT2 or HEK-hSGLT2 cells. The format is cell-based. Particulars: n = 1-4, cells stably transfected with hSGLT2, read-out: SGLT2 IC50 nM (n = 1-4). The method, then:
These cell lines transport 14 C-labelled alpha-methyl-glucopyranoside (14 C-AMG, Amersham) into the interior of the cell in sodium-dependent manner.
(§1) The SGLT-2 assay is carried out as follows: CHO-hSGLT2 cells are cultivated in Ham's F12 Medium (BioWhittaker) with 10% foetal calf serum and 250 μg/mL zeocin (Invitrogen), and HEK293-hSGLT2 cells are cultivated in DMEM medium with 10% foetal calf serum and 250 μg/mL zeocin (Invitrogen). The cells are detached from the culture flasks by washing twice with PBS and subsequently treating with trypsin/EDTA. After the addition of cell culture medium the cells are centrifuged, resuspended in culture medium and counted in a Casy cell counter. Then 40,000 cells per well are seeded into a white, 96-well plate coated with poly-D-lysine and incubated overnight at 37° C., 5% CO2. The cells are washed twice with 250 μl of assay buffer (Hanks Balanced Salt Solution, 137 mM NaCl, 5.4 mM KCl, 2.8 mM CaCl2, 1.2 mM MgSO4 and 10 mM HEPES (pH 7.4), 50 μg/mL of gentamycin). 250 μl of assay buffer and 5 μl of test compound are then added to each well and the plate is incubated for a further 15 minutes in the incubator. 5 μl of 10% DMSO are used as the negative control. The reaction is started by adding 5 μl of 14 C-AMG (0.05 μCi) to each well. After 2 hours' incubation at 37° C., 5% CO2, the cells are washed again with 250 μl of PBS […] and then lysed by the addition of 25 μl of 0.1 N NaOH (5 min. at 37° C.). 200 μl of MicroScint20 (Packard) are added to each well and incubation is continued for a further 20 min at 37° C. After this incubation the radioactivity of the 14 C-AMG absorbed is measured in a Topcount (Packard) using a 14 C scintillation program.

Another assay concerns the target human SGLT1 (Homo sapiens (Human), UniProt P13866). Put plainly: SGLT1 assay: analogous test with hSGLT1 cDNA expressed in CHO-K1 or HEK293 cells. The format is cell-based. Particulars: n = 1-4; 14C-AMG uptake, cells expressing hSGLT1. The method, then:
as §1
To determine the selectivity with respect to human SGLT1 an analogous test is set up in which the cDNA for hSGLTI (Genbank Ace. No. NM000343) instead of hSGLT2 cDNA is expressed in CHO-K1 or HEK293 cells.

Chain of human SGLT1 (P13866 whole entry): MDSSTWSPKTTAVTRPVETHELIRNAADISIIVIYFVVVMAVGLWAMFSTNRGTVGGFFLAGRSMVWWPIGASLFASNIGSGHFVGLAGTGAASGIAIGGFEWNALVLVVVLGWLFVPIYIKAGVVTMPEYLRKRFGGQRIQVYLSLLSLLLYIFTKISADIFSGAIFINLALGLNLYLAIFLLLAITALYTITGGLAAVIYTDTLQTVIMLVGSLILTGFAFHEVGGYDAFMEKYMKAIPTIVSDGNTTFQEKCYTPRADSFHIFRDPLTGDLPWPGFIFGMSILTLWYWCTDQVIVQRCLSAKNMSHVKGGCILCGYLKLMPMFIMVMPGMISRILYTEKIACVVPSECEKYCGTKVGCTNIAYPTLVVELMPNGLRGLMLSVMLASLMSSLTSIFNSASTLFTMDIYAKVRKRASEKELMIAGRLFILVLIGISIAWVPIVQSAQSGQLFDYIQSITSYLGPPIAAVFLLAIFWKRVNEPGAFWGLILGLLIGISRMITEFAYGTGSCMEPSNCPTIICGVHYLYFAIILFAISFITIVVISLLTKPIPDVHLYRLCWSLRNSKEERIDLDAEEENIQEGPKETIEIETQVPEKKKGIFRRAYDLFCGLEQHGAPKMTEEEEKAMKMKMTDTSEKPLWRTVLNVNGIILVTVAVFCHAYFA
Chain of human sodium glucose co-transporter 2 (P31639 whole entry): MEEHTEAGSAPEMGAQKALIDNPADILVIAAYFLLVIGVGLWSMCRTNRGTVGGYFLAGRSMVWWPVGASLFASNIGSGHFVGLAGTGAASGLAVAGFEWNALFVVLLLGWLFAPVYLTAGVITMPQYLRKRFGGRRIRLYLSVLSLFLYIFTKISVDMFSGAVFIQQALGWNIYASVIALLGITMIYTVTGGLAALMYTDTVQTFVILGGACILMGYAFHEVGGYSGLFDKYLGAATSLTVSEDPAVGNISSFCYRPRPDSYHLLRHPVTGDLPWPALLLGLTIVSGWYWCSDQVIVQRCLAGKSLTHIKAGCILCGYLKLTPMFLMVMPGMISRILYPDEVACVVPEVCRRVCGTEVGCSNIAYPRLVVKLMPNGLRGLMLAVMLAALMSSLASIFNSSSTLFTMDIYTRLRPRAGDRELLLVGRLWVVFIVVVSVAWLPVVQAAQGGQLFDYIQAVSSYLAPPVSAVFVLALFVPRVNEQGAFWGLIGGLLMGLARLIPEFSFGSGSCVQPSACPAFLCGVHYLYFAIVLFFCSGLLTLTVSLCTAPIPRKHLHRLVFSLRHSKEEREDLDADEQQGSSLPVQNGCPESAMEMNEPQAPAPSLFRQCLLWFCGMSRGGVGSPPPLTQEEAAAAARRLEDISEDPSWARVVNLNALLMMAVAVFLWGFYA

A word on the IC50: it is the concentration that inhibits the measured activity by half. For the molecule `O=C1COc2cc(Cc3cc([C@@H]4O[C@H](CO)[C@@H](O)[C@H](O)[C@H]4O)ccc3Cl)ccc2N1` [Example 42, 7-[2-Chloro-5-((2S,3R,4R,5S,6R)-3,4,5-trihydroxy-6-hydroxymethyl-tetrahydro-pyran-2-yl)-benzyl]-4H-benzo[1,4]oxazin-3-one], the results for the IC50 (in assay [1]; at human SGLT1) were 0.35 nM and 105 nM, respectively.
For the molecule `OC[C@H]1O[C@@H](c2ccc(Cl)c(Cc3ccc4c(c3)NCCO4)c2)[C@H](O)[C@@H](O)[C@@H]1O` [Example 8, (2S,3R,4R,5S,6R)-2-[4-Chloro-3-(3,4-dihydro-2H-benzo[1,4]oxazin-6-ylmethyl)-phenyl]-6-hydroxymethyl-tetrahydro-pyran-3,4,5-triol], the IC50 in assay [1] stood at 0.25 nM; at human SGLT1 it was 725 nM.
Taken in the same sequence, the figures for `COc1ccc(CN2CCCc3cc(Cc4cc([C@@H]5O[C@H](CO)[C@@H](O)[C@H](O)[C@H]5O)ccc4Cl)ccc32)cc1` [Example 14, (2S,3R,4R,5S,6R)-2-{4-Chloro-3-[1-(4-methoxy-benzyl)-1,2,3,4-tetrahydro-quinolin-6-ylmethyl]-phenyl}-6-hydroxymethyl-tetrahydro-pyran-3,4,5-triol] were 5.5 nM and 800 nM.
Taken in the same sequence, the figures for `O=C1CCOc2ccc(Cc3cc([C@@H]4O[C@H](CO)[C@@H](O)[C@H](O)[C@H]4O)ccc3Cl)cc21` [Example 35, 6-[2-Chloro-5-((2S,3R,4R,5S,6R)-3,4,5-trihydroxy-6-hydroxymethyl-tetrahydro-pyran-2-yl)-benzyl]-chroman-4-one] were 9.5 nM and 1100 nM.
On to `OC[C@H]1O[C@@H](c2ccc(Cl)c(Cc3ccc4c(c3)NCCC4)c2)[C@H](O)[C@@H](O)[C@@H]1O` [Example 16, (2S,3R,4R,5S,6R)-2-[4-Chloro-3-(1,2,3,4-tetrahydro-quinolin-7-ylmethyl)-phenyl]-6-hydroxymethyl-tetrahydro-pyran-3,4,5-triol], for which the figures for the IC50 (in assay [1]; against human SGLT1) were 0.15 nM and 750 nM, respectively.
Taken in the same sequence, the figures for `OC[C@H]1O[C@@H](c2ccc(F)c(Cc3ccc4c(c3)NCCO4)c2)[C@H](O)[C@@H](O)[C@@H]1O` [Example 24, (2S,3R,4R,5S,6R)-2-[3-(3,4-Dihydro-2H-benzo[1,4]oxazin-6-ylmethyl)-4-fluoro-phenyl]-6-hydroxymethyl-tetrahydro-pyran-3,4,5-triol] were 1.3 nM and 31000 nM.
The corresponding values for `COc1ccc([C@@H]2O[C@H](CO)[C@@H](O)[C@H](O)[C@H]2O)cc1Cc1ccc2c(c1)OCC(=O)N2` [Example 43, 7-[2-Methoxy-5-((2S,3R,4R,5S,6R)-3,4,5-trihydroxy-6-hydroxymethyl-tetrahydro-pyran-2-yl)-benzyl]-4H-benzo[1,4]oxazin-3-one] are 3.9 nM and 59 nM.
Taken in the same sequence, the figures for `OC[C@H]1O[C@@H](c2ccc(C3CC3)c(Cc3ccc4c(c3)NCCO4)c2)[C@H](O)[C@@H](O)[C@@H]1O` [Example 65, (2S,3R,4R,5S,6R)-2-[4-Cyclopropyl-3-(3,4-dihydro-2H-benzo[1,4]oxazin-6-ylmethyl)-phenyl]-6-hydroxymethyl-tetrahydro-pyran-3,4,5-triol] were 2.7 nM and 170 nM.
In the case of `OC[C@H]1O[C@@H](c2ccc(Cl)c(Cc3ccc4c(c3)CCCN4)c2)[C@H](O)[C@@H](O)[C@@H]1O` [Example 15, (2S,3R,4R,5S,6R)-2-[4-Chloro-3-(1,2,3,4-tetrahydro-quinolin-6-ylmethyl)-phenyl]-6-hydroxymethyl-tetrahydro-pyran-3,4,5-triol], the IC50 in assay [1] was 0.2 nM; against human SGLT1, 650 nM.
Consider `CCc1ccc([C@@H]2O[C@H](CO)[C@@H](O)[C@H](O)[C@H]2O)cc1Cc1ccc2c(c1)NCCO2` [Example 66, (2S,3R,4R,5S,6R)-2-[3-(3,4-Dihydro-2H-benzo[1,4]oxazin-6-ylmethyl)-4-ethyl-phenyl]-6-hydroxymethyl-tetrahydro-pyran-3,4,5-triol], for which the results for the 50% inhibitory concentration (IC50) (in assay [1]; against human SGLT1) were 0.9 nM and 100 nM, respectively.
